Earlier results on 52 compounds are cited in article PMC12308805, “Ultrahigh-Throughput Virtual Screening Strategies against PPI Targets: A Case Study of STAT Inhibitors” (Journal of Chemical Information and Modeling, 2025).

This data set relates to STAT3. The note with it: sheet 6QHD_actives_decoys, retrospective screening set for STAT3 SH2 domain (PDB 6QHD); decoys are presumed inactives, not tested; ref DUD-E; cited from earlier work.
`COc1cc([C@@H]2OC[C@H]3[C@@H]2CO[C@@H]3c2cc(OC)c(O[C@@H]3O[C@H](CO)[C@@H](O)[C@H](O)[C@H]3O[C@@H]3OC[C@](O)(CO)[C@H]3O)c(OC)c2)cc(OC)c1O` [Decoy817]: the Type result is on record as “Inactive (Decoy)”.

Consider `CCOC(=O)C1=C(C)NC(=O)N[C@H]1c1ccc(OCC(=O)N/N=C/c2ccc(SC)cc2)c(OC)c1` [Decoy818], for which the Type result is “Inactive (Decoy)”.

For `O=S1(=O)CC[C@@H](NCOC(COCN[C@H]2CCS(=O)(=O)C2)COCN[C@H]2CCS(=O)(=O)C2)C1` [Decoy819], the Type entry is “Inactive (Decoy)”.

For `CCOC(=O)CCC(=O)O[C@H]1[C@@H](O[C@@H]2[C@H](C)[C@H](O[C@@H]3C[C@@](C)(OC)[C@H](O)[C@H](C)O3)[C@H](C)C(=O)O[C@@H](CC)[C@@](C)(O)[C@H](O)[C@H](C)C(=O)[C@H](C)C[C@@]2(C)O)O[C@@H](C)C[C@H]1N(C)C` [Decoy820], the Type entry was “Inactive (Decoy)”.

As to `CN(Cc1cnc2nc(N)nc(N)c2n1)c1ccc(C(=O)N[C@H](CCC(=O)NCCNC(=O)CCCC[C@@H]2SC[C@@H]3NC(=O)N[C@@H]32)C(=O)O)cc1` [Decoy821], the Type entry was “Inactive (Decoy)”.

As for `CC(C)COC(=O)c1ccc(Nc2ncnc(NNC(=O)Cc3ccc([N+](=O)[O-])cc3)c2[N+](=O)[O-])cc1` [Decoy822], the Type entry is on record as “Inactive (Decoy)”.

Consider `COc1cc([C@H]2c3cc(OC)c(O[C@H]4O[C@@H](CO)[C@@H](O)[C@@H](O)[C@H]4O)c(OC)c3C[C@@H](CO)[C@@H]2CO)cc(OC)c1O` [Decoy823], for which the Type entry is “Inactive (Decoy)”.

For the compound `COc1cc([C@H]2c3cc(OC)c(O[C@H]4O[C@@H](CO)[C@@H](O)[C@@H](O)[C@H]4O)c(OC)c3C[C@H](CO)[C@@H]2CO)cc(OC)c1O` [Decoy824], the Type entry is recorded as “Inactive (Decoy)”.

With `O=C(CS[C@@H]1NN[C@H](NCc2ccco2)S1)N[C@H](Cc1c[nH]c2ccccc12)C(=O)O` [Decoy825], the Type entry is reported as “Inactive (Decoy)”.

As to `Cn1c(CCCC(=O)O)nc2cc(N(CCO)CCOC(=O)CCCc3nc4cc(N(CCO)CCO)ccc4n3C)ccc21` [Decoy826], the Type entry is “Inactive (Decoy)”.

Consider `COc1ccc(N/C(=N/C(=O)c2ccc(OC)c(OC)c2)NCCc2c(C)nn(C)c2C)cc1OC` [Decoy827], for which the Type result is “Inactive (Decoy)”.

`O[C@H](CNCCOc1ccccc1OCCNC[C@H](O)COc1cccc2[nH]c3ccccc3c12)COc1cccc2[nH]c3ccccc3c12` [Decoy828]: the Type entry is reported as “Inactive (Decoy)”.

Turning to `CCN(CC)c1ccc2c(-c3ccc(S(=O)(=O)NCCSS(C)(=O)=O)cc3S(=O)(=O)[O-])c3ccc(=[N+](CC)CC)cc-3oc2c1` [Decoy829], the Type entry was “Inactive (Decoy)”.

As for `C[C@H](CCC(=O)NCCS(=O)(=O)O)[C@H]1CC[C@H]2[C@H]3[C@H](O)C[C@@H]4C[C@H](OS(=O)(=O)O)CC[C@]4(C)[C@H]3C[C@H](O)[C@]12C` [Decoy830], the Type result is given as “Inactive (Decoy)”.

`CCOc1ccccc1NC(=O)CSC1=C(C#N)[C@H](c2ccco2)C(/C(O)=N/c2ccc(S(N)(=O)=O)cc2)=C(C)N1` [Decoy831]: the Type result is “Inactive (Decoy)”.

Regarding `CCOc1ccc(-c2nn(-c3ccccc3)cc2C2C(C(=O)OCCOC)=C(C)NC(C)=C2C(=O)OCCOC)cc1C` [Decoy832], the Type result is “Inactive (Decoy)”.

Take `COCCOC(=O)C1=C(C)NC(SCC(=O)Nc2ccc([N+](=O)[O-])cc2)=C(C#N)[C@@H]1c1ccco1` [Decoy833]: the Type result is “Inactive (Decoy)”.

`CCc1c(C)nc(-n2nc(-c3ccco3)cc2NC(=O)c2cc(OC)c(OC)cc2[N+](=O)[O-])nc1O` [Decoy834]: the Type result is “Inactive (Decoy)”.

As to `COc1ccc(OC)c(S(=O)(=O)Nc2ccc(S(=O)(=O)Nc3nccc(C)n3)cc2)c1` [Decoy835], the Type entry was “Inactive (Decoy)”.

Take `CC(C)(O)[C@@H](O)CC[C@@H](CO)[C@H]1CC[C@]2(C)C3=C(C[C@H](O)[C@@]12C)[C@@]1(C)C[C@H](O)[C@H](OC(=O)C[C@](C)(O)CC(=O)NCC(=O)O)C(C)(C)[C@H]1CC3` [Decoy836]: the Type entry is given as “Inactive (Decoy)”.

`COc1cc(S(=O)(=O)N2CCCCC2)ccc1N/C=C1\C(=O)NC(=O)N(c2ccc(C)cc2)C1=O` [Decoy837]: the Type result is listed as “Inactive (Decoy)”.

As to `CCOC(=O)c1c(NC(=O)/C(O)=N/N=C/c2cn(-c3ccccc3)nc2-c2ccc(OC)cc2)sc2c1CCCC2` [Decoy838], the Type result is on record as “Inactive (Decoy)”.

`CC1(C)[C@]2(C(=O)NCCN(CCNC(=O)[C@]34CC[C@](C)(C(=O)C3)C4(C)C)CCNC(=O)[C@]34CC[C@](C)(C(=O)C3)C4(C)C)CC[C@@]1(C)C(=O)C2` [Decoy839]: the Type result is “Inactive (Decoy)”.

With `O=C(O)c1ccccc1Nc1ccc(C(F)(F)F)cc1Nc1ccc(CNCc2c[nH]c(=O)[nH]c2=O)cc1C(=O)O` [Decoy840], the Type result was “Inactive (Decoy)”.

As for `N[C@@H](CCCC[n+]1cc(CC[C@H](N)C(=O)O)cc(CC[C@H](N)C(=O)O)c1CCC[C@H](N)C(=O)O)C(=O)[O-]` [Decoy841], the Type result is “Inactive (Decoy)”.

Turning to `COc1cc(C(=O)O)ccc1O[C@@H]1O[C@H](COC(=O)c2ccc(O)c(O)c2)[C@@H](O)[C@H](O)[C@H]1O` [Decoy842], the Type result is recorded as “Inactive (Decoy)”.

On to `CCOC(=O)c1sc(NC(=O)CSc2nnc(CNC(=O)c3ccccc3OC)n2C)c(C(=O)OCC)c1C` [Decoy843], for which the Type entry is listed as “Inactive (Decoy)”.

Regarding `CCN(CC)Cc1c(C(=O)N/N=C/c2cc(Cl)ccc2OCc2c(F)cccc2Cl)nnn1-c1nonc1N` [Decoy844], the Type result is “Inactive (Decoy)”.

Consider `CCOC(=O)c1ccc(NC(=O)C(=O)NCc2ccc(/C=C3/C(=O)N(c4ccc(C)c(Cl)c4)C(C)=C3C(=O)OC)o2)cc1` [Decoy845], for which the Type result is “Inactive (Decoy)”.

For `CCOC(=O)c1ccc(NC(=O)C(=O)NCc2ccc(/C=C3\C(=O)N(c4ccc(Cl)c(Cl)c4)C(C)=C3C(=O)OC)o2)cc1` [Decoy846], the Type entry is “Inactive (Decoy)”.

As to `CC(C)(CO[P@](=O)(O)O[P@](=O)(O)OC[C@H]1O[C@@H](n2cnc3c(N)ncnc32)[C@H](O)[C@@H]1OP(=O)(O)O)[C@@H](O)C(=O)NCCC(=O)NCCS` [Decoy847], the Type result is recorded as “Inactive (Decoy)”.

Take `CCOc1cc([C@@H]2C(C(=O)c3ccc4c(c3)OCCO4)=C(O)C(=O)N2CCCN2CCOCC2)ccc1O` [Decoy848]: the Type entry is “Inactive (Decoy)”.

Regarding `CC(C)(C)NS(=O)(=O)c1ccc(NC(=O)CSc2nnc(N/N=C/c3cccc(O)c3)n2N)cc1` [Decoy849], the Type result is “Inactive (Decoy)”.

On to `CCCN[C@H](c1cc(F)ccc1Cl)c1cc(C)ccc1Br` [Decoy850], for which the Type entry is recorded as “Inactive (Decoy)”.

For the compound `COc1cc(-c2ccc(/N=N/c3ccc4c(S(=O)(=O)O)cc(S(=O)(=O)O)c(N)c4c3O)c(OC)c2)ccc1/N=N\c1c(O)ccc2ccccc12` [Decoy851], the Type result is reported as “Inactive (Decoy)”.

`C[C@H](OC(=O)c1sccc1NS(C)(=O)=O)C(=O)NCC(=O)Nc1ccc(F)c(F)c1F` [Decoy852]: the Type result was “Inactive (Decoy)”.

On to `CCSc1nnc(NC(=O)CSc2nnc(CNC(=O)c3cccs3)n2-c2ccccc2OC)s1` [Decoy853], for which the Type result is reported as “Inactive (Decoy)”.

Regarding `CC(=O)SCCNC(=O)CCNC(=O)[C@@H](O)C(C)(C)CO[P@](=O)(O)O[P@](=O)(O)OC[C@H]1O[C@@H](n2cnc3c(N)ncnc32)[C@@H](O)[C@H]1OP(=O)(O)O` [Decoy854], the Type entry is reported as “Inactive (Decoy)”.

Consider `CCc1ccc(NC(=O)CSC2=C(C#N)[C@H](c3ccco3)C(C(=O)Nc3ccc(S(N)(=O)=O)cc3)=C(C)N2)cc1` [Decoy855], for which the Type entry was “Inactive (Decoy)”.

Turning to `COc1cc(C(=O)NNC(=S)NC(=O)COc2ccc(Br)cc2C)cc(OC)c1OC` [Decoy856], the Type result was “Inactive (Decoy)”.

As for `CCNc1nc(NCC)n2c(SCC(=O)NC3=C(C(=O)OCC)[C@H]4CCC[C@@H]4S3)nnc2n1` [Decoy857], the Type result was “Inactive (Decoy)”.

Turning to `CCOc1ccc(S(=O)(=O)Nc2ccc(C(=O)N/N=C(\C)c3ccc(OC)cc3O)cc2)cc1` [Decoy858], the Type entry is reported as “Inactive (Decoy)”.

For `COc1cc(-c2ccc(/N=N/c3cc(S(=O)(=O)O)c4ccccc4c3O)c(OC)c2)ccc1/N=N\c1c(S(=O)(=O)O)cc2cc(C(=O)O)c(O)cc2c1O` [Decoy859], the Type result is on record as “Inactive (Decoy)”.

As for `CC[C@H](C)[C@H](O)C(=O)O[C@H](C(=O)O[C@H](C(=O)OC[C@@H](O)[C@@H](O)[C@@H](O)[C@@H](O)CO)[C@@H](C)CC)[C@@H](C)CC` [Decoy860], the Type entry is given as “Inactive (Decoy)”.

Turning to `CC[C@H](C)[C@H](O)C(=O)O[C@H](C(=O)O[C@H](C(=O)OC[C@H](O)[C@H](O)[C@H](O)[C@H](O)CO)[C@@H](C)CC)[C@@H](C)CC` [Decoy861], the Type entry is “Inactive (Decoy)”.

Take `CC[C@@H](C)[C@H](O)C(=O)O[C@H](C(=O)O[C@H](C(=O)OC[C@@H](O)[C@@H](O)[C@@H](O)[C@@H](O)CO)[C@@H](C)CC)[C@@H](C)CC` [Decoy862]: the Type result is given as “Inactive (Decoy)”.

Regarding `CC[C@H](C)[C@H](OC(=O)[C@@H](OC(=O)[C@H](O)[C@@H](C)CC)[C@@H](C)CC)C(=O)OC[C@H](O)[C@H](O)[C@H](O)[C@H](O)CO` [Decoy863], the Type entry was “Inactive (Decoy)”.

With `CCCCN(C(=O)c1cccc(S(=O)(=O)N2CCN(C)CC2)c1)c1c(N)n(CCCC)c(=O)[nH]c1=O` [Decoy864], the Type entry is “Inactive (Decoy)”.

For `O=c1ccn([C@@H]2O[C@H](CO[P@](=O)(O)O[P@@](=O)(O)O[C@H]3OC[C@@H](O)[C@H](O)[C@H]3O)[C@@H](O)[C@H]2O)c(=O)[nH]1` [Decoy865], the Type entry was “Inactive (Decoy)”.

`CCOC(=O)C1=C(CN2CCN(CC(=O)Nc3cccc(F)c3)CC2)NC(=O)N[C@@H]1CC` [Decoy866]: the Type entry was “Inactive (Decoy)”.

With `CCN(CC)S(=O)(=O)c1ccc(OC)c(NC(=O)COc2cc(C)ccc2C(N)=O)c1` [Decoy867], the Type entry is listed as “Inactive (Decoy)”.

Consider `C[C@H]1CN(S(=O)(=O)c2ccc(C(=O)Nc3ccc(S(=O)(=O)Nc4nccs4)cc3)cc2)C[C@H](C)O1` [Decoy868], for which the Type result is given as “Inactive (Decoy)”.
